From US11584737B2, “Heterocyclic compound” (TAKEDA PHARMACEUTICAL COMPANY LIMITED, priority 2018, dated 2023)

Biological target: T1, CDK12/CycK complex (Homo sapiens, UniProt Q9NYV4)
Assay: Measurement of CDK12 inhibitory activity by binding assay (BODIPY-FL labeled AT-7519 high concentration conditions, 1320 nM)
Details: inhibitory rate against CDK12 at 1 μM test compound, 1320 nM BODIPY-FL-labeled AT-7519, 8 nM CDK12/CycK
Experimental: (4) Measurement of CDK12 Inhibitory Activity by Binding Assay (BODIPY-FL Labeled AT-7519 High Concentration Conditions)
(§1) His-tagged CDK12/CycK complex was blended with a binding assay buffer supplemented with BODIPY-FL labeled AT-7519, terbium-labeled streptavidin and biotin-labeled anti-histidine antibody. This solution was added to an assay plate containing a test compound dispensed therein, and the mixture was left standing for 120 min at room temperature. The final concentration of CDK12/CycK complex, BODIPY-FL-labeled AT-7519, terbium-labeled streptavidin and biotin-labeled anti-histidine antibody was set to 8 nM, 1320 nM, 0.2 nM, and 0.4 nM, respectively. The fluorescence intensity derived from terbium and BODIPY-FL was measured using Envision. The signal value of each well was determined using the TR-FRET ratio calculated by the following formula. TR-FRET ratio=(fluorescence value of BODIPY-FL)÷(fluorescence value of terbium)
(§2) The inhibitory rate (%) of the test compound against CDK12 was calculated by the following formula. Inhibitory rate (%)=(1−(TR-FRET ratio of test compound−blank)÷(control−blank))×100
The TR-FRET ratio of the CDK12 enzyme reaction mixture under compound non-addition conditions is indicated as control, and the TR-FRET ratio under 30 μM AT-7519 addition conditions is indicated as blank.
The inhibitory rate of the test compound against CDK12 at 1 μM is shown below.

T1 sequence (Q9NYV4 whole entry, species assumed): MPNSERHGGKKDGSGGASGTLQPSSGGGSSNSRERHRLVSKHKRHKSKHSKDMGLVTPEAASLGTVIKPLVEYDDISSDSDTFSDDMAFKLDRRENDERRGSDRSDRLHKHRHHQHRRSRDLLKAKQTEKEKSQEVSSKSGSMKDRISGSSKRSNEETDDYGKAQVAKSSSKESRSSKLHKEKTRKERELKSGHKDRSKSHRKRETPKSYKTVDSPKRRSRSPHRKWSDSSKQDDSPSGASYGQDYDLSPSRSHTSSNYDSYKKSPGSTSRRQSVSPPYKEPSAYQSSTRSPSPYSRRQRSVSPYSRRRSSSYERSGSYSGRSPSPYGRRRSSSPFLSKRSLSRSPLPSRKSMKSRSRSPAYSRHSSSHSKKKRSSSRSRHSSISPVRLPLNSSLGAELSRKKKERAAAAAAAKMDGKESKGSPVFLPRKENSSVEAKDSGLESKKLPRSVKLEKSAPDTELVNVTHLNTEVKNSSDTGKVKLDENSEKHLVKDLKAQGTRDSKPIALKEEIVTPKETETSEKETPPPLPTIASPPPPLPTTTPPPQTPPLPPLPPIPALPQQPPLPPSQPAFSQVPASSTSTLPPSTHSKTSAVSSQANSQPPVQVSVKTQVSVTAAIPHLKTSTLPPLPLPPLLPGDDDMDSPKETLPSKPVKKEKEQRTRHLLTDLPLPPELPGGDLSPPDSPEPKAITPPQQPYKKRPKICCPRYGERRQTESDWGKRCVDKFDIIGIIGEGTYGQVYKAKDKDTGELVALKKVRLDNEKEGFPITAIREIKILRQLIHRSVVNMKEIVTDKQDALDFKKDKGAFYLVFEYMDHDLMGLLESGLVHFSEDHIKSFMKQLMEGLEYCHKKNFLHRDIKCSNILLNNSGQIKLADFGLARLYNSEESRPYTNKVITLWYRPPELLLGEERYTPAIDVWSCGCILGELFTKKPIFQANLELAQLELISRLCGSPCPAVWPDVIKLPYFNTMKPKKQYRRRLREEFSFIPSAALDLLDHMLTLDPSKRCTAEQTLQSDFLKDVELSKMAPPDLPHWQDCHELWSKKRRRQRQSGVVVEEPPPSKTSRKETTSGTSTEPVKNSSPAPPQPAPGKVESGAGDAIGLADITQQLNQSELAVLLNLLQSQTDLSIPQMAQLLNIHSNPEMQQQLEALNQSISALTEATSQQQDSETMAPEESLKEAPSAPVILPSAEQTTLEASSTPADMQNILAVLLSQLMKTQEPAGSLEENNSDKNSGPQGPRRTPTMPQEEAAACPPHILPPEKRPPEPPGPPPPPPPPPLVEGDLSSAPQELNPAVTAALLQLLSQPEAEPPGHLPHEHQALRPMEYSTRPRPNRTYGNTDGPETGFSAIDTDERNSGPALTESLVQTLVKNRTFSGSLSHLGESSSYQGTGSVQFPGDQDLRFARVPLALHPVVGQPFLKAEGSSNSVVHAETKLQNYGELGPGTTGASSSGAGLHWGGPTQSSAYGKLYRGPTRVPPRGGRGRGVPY
T1 sequence (O75909 whole entry partner, species assumed): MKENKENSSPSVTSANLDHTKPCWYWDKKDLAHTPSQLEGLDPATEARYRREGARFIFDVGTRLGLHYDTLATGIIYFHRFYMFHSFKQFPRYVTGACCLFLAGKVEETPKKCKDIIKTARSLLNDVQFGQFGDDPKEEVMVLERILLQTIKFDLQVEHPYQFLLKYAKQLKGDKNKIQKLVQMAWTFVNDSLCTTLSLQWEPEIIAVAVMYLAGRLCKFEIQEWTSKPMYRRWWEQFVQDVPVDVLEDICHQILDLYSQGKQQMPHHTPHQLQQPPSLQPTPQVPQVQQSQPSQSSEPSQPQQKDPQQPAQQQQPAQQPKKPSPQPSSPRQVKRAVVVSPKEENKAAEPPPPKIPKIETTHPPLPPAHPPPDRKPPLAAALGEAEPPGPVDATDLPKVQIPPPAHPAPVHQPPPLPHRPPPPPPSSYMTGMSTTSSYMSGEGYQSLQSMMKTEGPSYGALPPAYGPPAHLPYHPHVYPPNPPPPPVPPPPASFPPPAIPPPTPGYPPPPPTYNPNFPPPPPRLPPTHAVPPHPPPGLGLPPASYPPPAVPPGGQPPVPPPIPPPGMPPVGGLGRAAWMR

inhibition at 1 µM [%]	SMILES
92	COCC(=O)N(c1cnc(-c2cnc(OC)nc2)cn1)[C@H]1CC[C@H](Nc2ncc(C(F)(F)F)c(-c3ccn(C(F)F)n3)n2)CC1 [Example 797, N-(trans-4-((4-(1-(difluoro-methyl)-1H-pyrazol-3-yl)-5-(trifluoromethyl)pyrimidin-2-yl)amino)cyclohexyl)-2-methoxy-N-(5-(2-methoxypyrimidin-5-yl)pyrazin-2-yl)acetamide]
91	COCCOC(=O)N(c1cnc(-c2cnc(OC)nc2)cn1)[C@H]1CC[C@H](Nc2ncc(C(F)(F)F)c(-c3cncc(S(C)(=O)=O)c3)n2)CC1 [Example 800, 2-methoxyethyl (trans-4-((4-(5-(methanesulfonyl)pyridin-3-yl)-5-(trifluoromethyl)pyrimidin-2-yl)amino)cyclohexyl) (5-(2-methoxypyrimidin-5-yl)pyrazin-2-yl)carbamate]
99	COc1ncc(-c2cnc(N(C(=O)OCCN3CCOCC3)[C@H]3CC[C@H](Nc4ncc(C(F)(F)F)c(-c5cncc(S(C)(=O)=O)c5)n4)CC3)cn2)cn1 [Example 808, 2-(morpholin-4-yl)ethyl (trans-4-((4-(5-(methanesulfonyl)-pyridin-3-yl)-5-(trifluoro-methyl)pyrimidin-2-yl)amino)cyclohexyl) (5-(2-methoxypyrimidin-5-yl)pyrazin-2-yl)carbamate]
94	COCC(=O)N(c1cnc(-c2cnn(C)c2)cn1)[C@H]1CC[C@H](Nc2ncc(C(F)(F)F)c(-c3ccn(C(F)F)n3)n2)CC1 [Example 811, N-(trans-4-((4-(1-(difluoromethyl)-1H-pyrazol-3-yl)-5-(trifluoromethyl)pyrimidin-2-yl)amino)cyclohexyl)-2-methoxy-N-(5-(1-methyl-1H-pyrazol-4-yl)pyrazin-2-yl)acetamide]
95	COCC(=O)N(c1cnc(-c2cnn(C)c2)cn1)[C@H]1CC[C@H](Nc2ncc(C(F)(F)F)c(-c3cncc(S(C)(=O)=O)c3)n2)CC1 [Example 812, N-(trans-4-((4-(5-(methanesulfonyl)pyridin-3-yl)-5-(trifluoromethyl)pyrimidin-2-yl)amino)cyclohexyl)-2-methoxy-N-(5-(1-methyl-1H-pyrazol-4-yl)pyrazin-2-yl)acetamide]
99	CCCC(=O)N(c1cnc(-c2cnn(C)c2)cn1)[C@H]1CC[C@H](Nc2ncc(C(F)(F)F)c(-c3cncc(S(C)(=O)=O)c3)n2)CC1 [Example 814, N-(trans-4-((4-(5-(methanesulfonyl)pyridin-3-yl)-5-(trifluoromethyl)pyrimidin-2-yl)amino)cyclohexyl)-N-(5-(1-methyl-1H-pyrazol-4-yl)pyrazin-2-yl)butanamide]

Further lines, the molecule ahead of its results:

SMILES	inhibition at 1 µM [%]
COc1ncc(-c2cnc(N(C(=O)NCc3ccccc3)[C@H]3CC[C@H](Nc4ncc(C(F)(F)F)c(OC5(C)COC5)n4)CC3)cn2)cn1 [Example 640, 3-benzyl-1-(5-(2-methoxypyrimidin-5-yl)pyrazin-2-yl)-1-(trans-4-((4-((3-methyloxetan-3-yl)oxy)-5-(trifluoromethyl)pyrimidin-2-yl)amino)cyclohexyl)urea]	105
COc1ncc(-c2ccc(N(C(=O)NCC(F)F)[C@H]3CC[C@H](Nc4ncc(C(F)(F)F)c(-c5cncc(S(C)(=O)=O)c5)n4)CC3)nc2)cn1 [Example 741, 3-(2,2-difluoroethyl)-1-(trans-4-((4-(5-(methane-sulfonyl)pyridin-3-yl)-5-(trifluoromethyl)pyrimidin-2-yl)amino)cyclohexyl)-1-(5-(2-methoxypyrimidin-5-yl)pyridin-2-yl)urea]	87
COc1ncc(-c2cnc(N(C(=O)NCC(F)F)[C@H]3CC[C@H](Nc4ncc(C(F)(F)F)c(-c5n[nH]c(C)c5Cl)n4)CC3)cn2)cn1 [Example 745, 1-(trans-4-((4-(4-chloro-5-methyl-1H-pyrazol-3-yl)-5-(trifluoromethyl)pyrimidin-2-yl)amino)cyclohexyl)-3-(2,2-difluoroethyl)-1-(5-(2-methoxypyrimidin-5-yl)pyrazin-2-yl)urea]	94
COc1ncc(-c2cnc(N(C(=O)N3CC(C)(O)C3)[C@H]3CC[C@H](Nc4ncc(C(F)(F)F)c(-c5n[nH]cc5Cl)n4)CC3)cn2)cn1 [Example 746, N-(trans-4-((4-(4-chloro-1H-pyrazol-3-yl)-5-(trifluoro-methyl)pyrimidin-2-yl)-amino)cyclohexyl)-3-hydroxy-N-(5-(2-methoxypyrimidin-5-yl)pyrazin-2-yl)-3-methylazetidine-1-carboxamide]	91
COCCNC(=O)N(c1cnc(-c2cnc(OC)nc2)cn1)[C@H]1CC[C@H](Nc2ncc(C(F)(F)F)c(-c3nn(C(F)F)cc3Cl)n2)CC1 [Example 752, 1-(trans-4-((4-(4-chloro-1-(difluoromethyl)-1H-pyrazol-3-yl)-5-(trifluoromethyl)-pyrimidin-2-yl)amino)cyclo-hexyl)-3-(2-methoxyethyl)-1-(5-(2-methoxypyrimidin-5-yl)pyrazin-2-yl)urea]	90
COCCNC(=O)N(c1cnc(-c2cnn(C)c2)cn1)[C@H]1CC[C@H](Nc2ncc(C(F)(F)F)c(-c3nn(C(F)F)cc3Cl)n2)CC1 [Example 756, 1-(trans-4-((4-(4-chloro-1-(difluoromethyl)-1H-pyrazol-3-yl)-5-(trifluoromethyl)-pyrimidin-2-yl)amino)cyclo-hexyl)-3-(2-methoxyethyl)-1-(5-(1-methyl-1H-pyrazol-4-yl)pyrazin-2-yl)urea]	90
Cn1ccc(-c2cnc(N(C(=O)NCC(F)(F)F)[C@H]3CC[C@H](Nc4ncc(C(F)(F)F)c(-c5ccn(C(F)F)n5)n4)CC3)cn2)cc1=O [Example 768, 1-(trans-4-((4-(1-(difluoromethyl)-1H-pyrazol-3-yl)-5-(trifluoromethyl)-pyrimidin-2-yl)amino)-cyclohexyl)-1-(5-(1-methyl-2-oxo-1,2-dihydropyridin-4-yl)-pyrazin-2-yl)-3-(2,2,2-trifluoroethyl)urea]	92
COc1ncc(-c2cnc(N(C(=O)NCC(F)F)[C@H]3CC[C@H](Nc4ncc(C(F)(F)F)c(OC5(C)COC5)n4)CC3)cn2)cn1 [Example 777, 3-(2,2-difluoroethyl)-1-(5-(2-methoxypyrimidin-5-yl)pyrazin-2-yl)-1-(trans-4-((4-((3-methyloxetan-3-yl)oxy)-5-(trifluoromethyl)pyrimidin-2-yl)amino)cyclohexyl)urea]	92
COCC(=O)N(c1cnc(-c2cnc(OC)nc2)cn1)[C@H]1CC[C@H](Nc2ncc(C(F)(F)F)c(-c3n[nH]cc3Cl)n2)CC1 [Example 796, N-(trans-4-((4-(4-chloro-1H-pyrazol-3-yl)-5-(trifluoromethyl)pyrimidin-2-yl)amino)cyclohexyl)-2-methoxy-N-(5-(2-methoxypyrimidin-5-yl)pyrazin-2-yl)acetamide]	95

Biological target: T1, CDK12/CycK complex
Assay: Measurement of CDK12 inhibitory activity by binding assay (TR-FRET, 66 nM BODIPY-FL-labeled AT-7519)
Details: inhibitory rate against CDK12 at 1 μM test compound, 66 nM BODIPY-FL-labeled AT-7519, 2 nM CDK12/CycK
Experimental: Experimental Example 1: CDK12 Binding Assay
(3) Measurement of CDK12 Inhibitory Activity by Binding Assay
as §1, with “added to” for “blended with”, “antibody, and the mixture was stood for not less than 60 min at room temperature.” for “antibody.”, “2” for “8”, “66” for “1320”
as §2
The TR-FRET ratio of the CDK12 enzyme reaction mixture under compound non-addition conditions is indicated as control, and the TR-FRET ratio under 3 μM AT-7519 addition conditions is indicated as blank.
The inhibitory rate of the test compound against CDK12 at […] is shown below.

inhibition at 1 µM [%]	SMILES
103	COc1ncc(-c2ccc(N(C(=O)N[C@H](C)c3ccccc3)[C@H]3CC[C@H](Nc4ncc(C(F)(F)F)c(N5CC(C)(O)C5)n4)CC3)nc2)cn1 [Example 631, 1-(trans-4-((4-(3-hydroxy-3-methylazetidin-1-yl)-5-(trifluoromethyl)pyrimidin-2-yl)amino)cyclohexyl)-1-(5-(2-methoxypyrimidin-5-yl)pyridin-2-yl)-3-((1R)-1-phenylethyl)urea]
102	COc1ncc(-c2ccc(N(C(=O)N[C@@H](C)c3ccccc3)[C@H]3CC[C@H](Nc4ncc(C(F)(F)F)c(N5CC(C)(O)C5)n4)CC3)nc2)cn1 [Example 633, 1-(trans-4-((4-(3-hydroxy-3-methylazetidin-1-yl)-5-(trifluoromethyl)pyrimidin-2-yl)amino)cyclohexyl)-1-(5-(2-methoxypyrimidin-5-yl)pyridin-2-yl)-3-((1S)-1-phenylethyl)urea]
